From PMC8253137, “Microbiota-derived butyrate is an endogenous HIF prolyl hydroxylase inhibitor” (Gut Microbes, 2021)
Like-named read-outs stand apart in the source and are kept apart here.

Columns and labels:
PHD2_181-402 [1] = target: T1, PHD2_181-402 (Homo sapiens, UniProt Q9GZT9); experiment: PHD2_181-402 inhibition assay (bioluminescent succinate detection, Succinate-Glo); assay type: biochemical; conditions: for IC50: read-out: True IC50; for fold less effective at inhibiting PHD2_181-402 (compared to butyrate): relative to butyrate true IC50
T1 sequence (Q9GZT9 181-402): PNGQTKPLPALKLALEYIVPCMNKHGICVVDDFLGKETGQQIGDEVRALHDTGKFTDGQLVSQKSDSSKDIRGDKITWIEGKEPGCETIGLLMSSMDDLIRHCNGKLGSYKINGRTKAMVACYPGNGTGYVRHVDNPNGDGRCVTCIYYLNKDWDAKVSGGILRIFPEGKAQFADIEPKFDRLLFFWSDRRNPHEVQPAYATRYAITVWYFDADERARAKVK
Description: PHD2_181-402 activity and inhibition assays were performed with the Succinate-Glo JmjC Demethylase/Hydroxylase Assay Kit (Promega) according to manufacturer protocol and as detailed in Alves et al. […] The enzymatic reaction was incubated at room temperature for 10 minutes, after which succinate formation was detected according to manufacturer protocol. […] Then, 20 µL of Succinate Detection Reagent II was added to the reactions and incubated for 10 min at room temperature before the luciferase-generated luminescence was recorded on a plate-reading luminometer. Succinate standard curves were used to determine the sensitivity and linear range of the bioluminescent succinate detection. […] Succinate standards were serially diluted two-fold from 15 µM to 58.6 nM and a 0 succinate blank. 10 µL of succinate standards were used for detection as described above. […] Reactions were incubated at room temperature for 10 minutes and succinate detected. […] Measured IC50s were calculated from fitting the percentage activity data to the [Inhibitor] vs. normalized response – variable slope least squares nonlinear regression in GraphPad Prism 9. True IC50s were calculated from measured IC50s with the equation derived by Wu et al.[26] describing the relationship between the measured IC50 of an inhibitor and the percentage of substrate conversion.

PHD2_181-402 [2] = target: T1, PHD2_181-402; experiment: WaterLOGSY 1D NMR binding; conditions: 10 mM ligand, 25 μM PHD2_181-402
Source text: Next, we established whether butyrate binds directly to PHD2_181-402 using 1D WaterLOGSY NMR.[28] This method enables sensitive and robust detection of binding (dissociation constants as weak as μM to low mM) based on the magnetization transfer between water molecules, proteins, and ligands of interest in close proximity via dipolar proton–proton cross-relaxation (nuclear Overhauser effect, NOE). […] Binding and non-binding ligands can be distinguished in a WaterLOGSY spectrum via their opposite signs in relation to water for their corresponding peaks.
Following an established protocol, all NMR analyses were performed using PHD2_181-402 and the diamagnetic element (Zn^2+) rather than a paramagnetic element such as Fe^2+ that would result in inhibitive signal reduction or loss due to fast relaxation induced by the unpaired electron.[63]
Water-Ligand Observed via Gradient SpectroscopY (WaterLOGSY): Measurements were carried out on a 600 MHz triple-resonance Bruker cryoprobe spectrometer.[28] Selective water inversion was achieved using an iBURP shaped pulse with 15 ms length and an inversion bandwidth of 0.4 ppm. The mixing time was set to 1 s, and the water was suppressed using double Watergate. 1024 scans were acquired with an interscan delay of 2 s. The sample concentration was 25 µM of PHD2_181-402 mixed with 10 mM of the different ligands in NMR buffer (Tris 50 mM, NaCl 20 mM, ZnCl2 100 μM) at pH 6.5.

HDACs = system: HDACs; design: method as in PMID 18061431, PMID 30052654; conditions: cited from earlier work
murine colon tissue [3] = experiment: Rectal gavage in antibiotic-treated SCFA-depleted mice; assay type: in vivo; conditions: rectal 100 mM butyrate or 1.5 mM IOX2, 1 h, after antibiotics
Description: (§1) C57BL/6 mice were purchased from Jackson Laboratories. Animals were maintained and bred in standard housing conditions under 24 h/day, 7 days/week veterinary care available at the University of Colorado Anschutz Medical Campus (AMC) animal facility. All animal procedures were reviewed and approved by the Institutional Animal Care and Use Committee at AMC. 8 to 10-week-old male and female mice were pre-administered an antibiotic cocktail consisting of 1 mg/mL ampicillin, gentamicin, and neomycin, 0.5 mg/mL vancomycin, and 0.25 mg/mL metronidazole for 5 d ad libitum in addition to water control mice. Mice were then given 200 µL of tributyrin daily for three days using reusable feeding needles (18060–20, Fine Science Tools). On the third day, 4 h prior to sacrifice, select mice given tributyrin were rectally given 100 μL of 60 mM MCPA with plastic gavage tubes (FTP-20-38-50, Instech) inserted 1 cm into the rectum without surgical lubricant. Whole colon tissue at the site of the rectal gavage was collected for metabolite analysis, while colon whole tissue and epithelial scrapings upstream from the gavage site was collected for RNA and protein analysis. In the second butyrate reconstitution experiment, mice were rectally given 100 μL of 100 mM butyrate, 100 mM butyrate with 10 mM MCPA, 1.5 mM IOX2, or PBS control under anesthesia. Mice were then sacrificed 1 h after rectal supplementation and colon tissues collected for metabolite, mRNA, and protein analysis from the site of the rectal gavage.
(§2) TRIzol® reagent (ThermoFisher Scientific) was used to isolate total RNA from T84 cells. Mouse colon tissue samples were harvested into RNAlater™ (Invitrogen) and stored at 4°C for 48 h. Total RNA was isolated from the tissues using RNeasy Plus Mini Kit (Qiagen). cDNA was prepared using the iScript cDNA Synthesis Kit (Bio-Rad). Quantitative PCR analysis was performed using the Power SYBR™ Green master mix (Applied Biosystems) in a thermocycler. Fold change in expression of target mRNA relative to β-actin (ACTB) mRNA was calculated using the delta-delta Ct method. Primer sequences used are as follows: hBNIP3 – forward, 5′- […] −3′, reverse, 5′- […] −3′; hBNIP3L – forward, 5′- […] −3′, reverse, 5′- […] −3′; hGLUT1 – forward, 5′- […] −3′, reverse, 5′- […] −3′; hACTB – forward, 5′- […]-3′, reverse, 5′- […]-3′; mBnip3 – forward, 5′- […] −3′, reverse, 5′- […] −3′; mBnip3l – forward, 5′- […] −3′, reverse, 5′- […] −3′; mGlut1 – forward, 5′- […] −3′, reverse, 5′- […] −3′; and mActb – forward, 5′- […] −3′, reverse, 5′- […] −3′.
(§3) T84 cells were rinsed with PBS and collected and lysed in 200 µL of radioimmunoprecipitation assay (RIPA, 50 mM Tris-HCl pH 8.0, 1 mM EDTA, 1% Triton X-100, […], 0.5% sodium deoxycholate, 150 mM NaCl) buffer with protease inhibitors on ice. Mouse colon samples were harvested into 350 µL of RIPA buffer and flash frozen in liquid nitrogen. Samples were homogenized by sonication, and insoluble materials removed by centrifugation at 10,000 g for 5 min at 4°C. Protein quantity of the supernatant was determined using the Bradford reagent. Laemmli sample buffer was added to each sample. Samples (20 µg) were run and separated on 8% SDS-PAGE gels and transferred to polyvinylidene fluoride (PVDF) membranes. Membranes were blocked overnight at 4°C in Tris-buffered saline with 1% Tween-20 (TBS-T) and 5% milk. […]

T84 cells [4] = experiment: 2-OG levels in T84 cells; assay type: cell-based; conditions: 3 h, 10 mM butyrate or 30 μM IOX2
Description: (§4) T84 cells were cultured in 95% air with 5% CO2 at 37°C in standard media made of DMEM:F-12 supplemented with 10% calf serum, 1% penicillin/streptomycin, and 1% GlutaMAX™ (ThermoFisher Scientific) on 9.6 cm^2 6-well plates (ThermoFisher Scientific). Real-time oxygen sensing was done using the SensorDish Reader from Applikon Biotechnology as described previously with T84 cells plated on 0.33 cm^2 transwell inserts (Corning, 0.4 μm).[12] All MCPA treatments included a 2 h pretreatment with MCPA before treatment with butyrate.
(§5) Metabolites Extractions and HPLC-DAD: Cell and colon tissue metabolites were extracted and analyzed as previously described with minor variations.[61],[62] The metabolites were detected by absorption at wavelengths of 210, 254, and 280 nm, with their absorbance spectra and retention times verified by co-injection with authentic standards. Metabolites for HPLC-ESI MS analyses were resuspended in deionized water (pH 7.2).
HPLC-ESI MS: Analyses were performed on an Agilent Technologies 1260 Infinity II LC/MSD iQ with electrospray ionization (ESI) mass detection. Negative ion mass-to-charge ratios (m/z) were scanned from 50 to 500. The metabolite extracts were chromatographed using a Sepax Carbomix column (Pb-Np5:8%, 5 μm, non-porous, 4.6 × 300 mm) (mobile phase A: water; mobile phase B: acetonitrile; column temperature, 75°C). Chromatographic separation was performed using a combination of isocratic and gradient methods, including column washing and equilibration periods at the end (0 min: 100% A, 0.12 mL/min; 60 min: 100% A, 0.12 mL/min; 70 min: 70% A, 0.5 mL/min; 145 min: 70% A, 0.5 mL/min; 150 min: 100% A, 0.5 mL/min; 164 min, 100% A, 0.5 mL/min; 165 min, 100% A, 0.12 mL/min; 170 min, 100% A, 0.12 mL/min).

murine colon tissue [5] = experiment: Tributyrin oral gavage in antibiotic-treated SCFA-depleted mice; assay type: in vivo
Description: as §1, §2, §3

rat hepatocytes = system: rat hepatocytes; design: method as in PMID 9124539; conditions: cited from earlier work
T84 cells [6] = experiment: Butyrate metabolism and oxygen consumption in T84 cells; assay type: cell-based
Description: as §4, §5

[7] = design: method as in PMID 10321503; conditions: mice, oral gavage with tributyrin, 1 h after dosing; cited from earlier work
[8] = 1 μM PHD2_181-402, 10 μM 2-OG, 10 μM Fe(II), 10 μM HIF-1α547-581 peptide, 100 μM ascorbic acid, 10-minute reaction, calculated from measured IC50 accounting for substrate conversion, error SEM

## CCC(CC)C(=O)O [2-Ethylbutyrate]
PHD2_181-402 [1]; [8]
  IC50: 77 ± 6 mM

## CC(O)CC(=O)O (stereo not shown) [3-Hydroxybutyrate]
PHD2_181-402 [1]; [8]
  IC50: 14 ± 1 mM

## CC(=O)O [Acetate]
PHD2_181-402 [1]; [8]
  IC50: 50 ± 10 mM
PHD2_181-402 [1]
  fold less effective at inhibiting PHD2_181-402 (compared to butyrate): ~ 10 fold
PHD2_181-402 [2]
  binding to PHD2_181-402 (WaterLOGSY signal): no binding
HDACs
  HDAC inhibition: none

## COC(=O)CNC(=O)C(=O)OC [DMOG, dimethyloxalylglycine, reference compound]
PHD2_181-402 [1]; [8]
  IC50: 1.9 ± 0.5 mM
PHD2_181-402 [1]; 2-OG at 1, 5, 10, 40 or 100 µM
  change of IC50 with increasing 2-OG: increased significantly

## CCCCCC(=O)O [Hexanoate]
PHD2_181-402 [1]
  IC50: 17 ± 3 mM
  fold less effective at inhibiting PHD2_181-402 (compared to butyrate): ~ 3 fold
HDACs
  HDAC inhibition: lesser degrees of HDAC inhibition

## O=C(O)CNC(=O)c1c(O)c2ccccc2n(Cc2ccccc2)c1=O [IOX2, reference compound]
Murine colon tissue [3]; colon tissue
  mRNA expression of HIF-1α targets Bnip3, Bnip3l, Glut1: rescued
Murine colon tissue [3]
  colon tissue 2-OG levels: rescued
T84 cells [4]
  2-OG levels compared to control: lesser extent than butyrate

## C=C1CC1CC(=O)O (stereo not shown) [MCPA, methylene cyclopropyl acetic acid]
Murine colon tissue [5]; 60 mM MCPA rectal gavage 4 h in mice given tributyrin
  colon tissue butyrate level compared to tributyrin alone: significantly increased
Rat hepatocytes
  reduction of acetyl-CoA levels: 70–90%
T84 cells [6]; 600 μM butyrate with 1 mM MCPA, 0 to 6 h
  butyrate metabolism: reduced butyrate metabolism
T84 cells [6]; 5 mM butyrate with 1 mM MCPA, 30 min
  butyrate-associated oxygen consumption: eliminated the increase in oxygen consumption

## CCC(=O)O [Propionate]
PHD2_181-402 [1]; [8]
  IC50: 60 ± 10 mM
PHD2_181-402 [1]
  fold less effective at inhibiting PHD2_181-402 (compared to butyrate): ~ 10 fold
PHD2_181-402 [2]
  binding to PHD2_181-402 (WaterLOGSY signal): no binding
HDACs
  HDAC inhibition: lesser degrees of HDAC inhibition

## CCCCC(=O)O [Valerate]
PHD2_181-402 [1]
  IC50: 16 ± 3 mM
  fold less effective at inhibiting PHD2_181-402 (compared to butyrate): ~ 3 fold
PHD2_181-402 [2]
  binding to PHD2_181-402 (WaterLOGSY signal): no binding
HDACs
  HDAC inhibition: lesser degrees of HDAC inhibition

## CCCC(=O)OCC(COC(=O)CCC)OC(=O)CCC [tributyrin]
[7]
  plasma butyrate concentrations: > 1 mM
Murine colon tissue [5]; epithelial scrapings and whole-colon tissue, tributyrin 200 µL, 3 d, with or without MCPA
  HIF-1α protein: rescued
Murine colon tissue [5]; tributyrin 200 µL, 3 d, with or without MCPA
  colon tissue 2-OG levels: recovered
Murine colon tissue [5]; tributyrin 200 µL, 3 d, with or without MCPA, versus antibiotics (glycerol control)
  colon tissue butyrate levels: rescued
Murine colon tissue [5]; whole-colon tissue and epithelial scrapings, tributyrin 200 µL oral gavage daily for 3 d, with or without 60 mM MCPA rectal 4 h
  HIF-1α target gene Bnip3l mRNA: normalized
